Test results from PMC9133015 (Nature Communications, 2022).
“And” between values parts separate entries of the source, which are not always exact repeats. Equal values may be shown once.

How the values were obtained:
Test in all cases: Kinase inhibitor specificity profiling (Reaction Biology Corporation)
Format in all cases: biochemical
Parameters in all cases: % Enzyme Activity (relative to DMSO controls): concentration or dose not given beside the values
[1] = target: T1, panel of 370 protein kinases (Homo sapiens, UniProt P57059); settings: kinase SIK1
T1 construct: purchased Reaction Biology Corporation (assay service)

[2] = target: T2, panel of 370 protein kinases (Homo sapiens, UniProt P49674); settings: 2 h, kinase CK1epsilon; read-out: % Enzyme Activity (relative to DMSO controls)
T2 construct: purchased Reaction Biology Corporation (assay service)

[3] = target: T3, panel of 370 protein kinases (Homo sapiens, UniProt Q05655); settings: 2 h, kinase PKCd; read-out: % Enzyme Activity (relative to DMSO controls)
T3 construct: purchased Reaction Biology Corporation (assay service)

[4] = target: T4, panel of 370 protein kinases (Homo sapiens, UniProt Q9UL54); settings: 2 h, kinase TAOK2/TAO1; read-out: % Enzyme Activity (relative to DMSO controls)
T4 construct: purchased Reaction Biology Corporation (assay service)

[5] = target: T5, panel of 370 protein kinases (Homo sapiens, UniProt O95835); settings: 2 h, kinase LATS1; read-out: % Enzyme Activity (relative to DMSO controls)
T5 construct: purchased Reaction Biology Corporation (assay service)

[6] = target: T6, panel of 370 protein kinases (Homo sapiens, UniProt O00444); settings: 2 h, kinase PLK4/SAK; read-out: % Enzyme Activity (relative to DMSO controls)
T6 construct: purchased Reaction Biology Corporation (assay service)

[7] = target: T7, panel of 370 protein kinases (Homo sapiens, UniProt Q86YV6); settings: 2 h, kinase MYLK4; read-out: % Enzyme Activity (relative to DMSO controls)
T7 construct: purchased Reaction Biology Corporation (assay service)

[8] = target: T8, panel of 370 protein kinases (Homo sapiens, UniProt P35626); settings: 2 h, kinase GRK3; read-out: % Enzyme Activity (relative to DMSO controls)
T8 construct: purchased Reaction Biology Corporation (assay service)

[9] = target: T9, panel of 370 protein kinases (Homo sapiens, UniProt Q9BYT3); settings: 2 h, kinase STK33; read-out: % Enzyme Activity (relative to DMSO controls)
T9 construct: purchased Reaction Biology Corporation (assay service)

[10] = target: T10, panel of 370 protein kinases (Homo sapiens, UniProt P53778); settings: 2 h, kinase P38g; read-out: % Enzyme Activity (relative to DMSO controls)
T10 construct: purchased Reaction Biology Corporation (assay service)

[11] = target: T11, panel of 370 protein kinases (Homo sapiens, UniProt P36897); settings: 2 h, kinase ALK5/TGFBR1; read-out: % Enzyme Activity (relative to DMSO controls)
T11 construct: purchased Reaction Biology Corporation (assay service)

[12] = target: T12, panel of 370 protein kinases (Homo sapiens, UniProt Q9UPE1); settings: 2 h, kinase MSSK1/STK23; read-out: % Enzyme Activity (relative to DMSO controls)
T12 construct: purchased Reaction Biology Corporation (assay service)

[13] = target: T13, panel of 370 protein kinases (Homo sapiens, UniProt Q15759); settings: 2 h, kinase P38b/MAPK11; read-out: % Enzyme Activity (relative to DMSO controls)
T13 construct: purchased Reaction Biology Corporation (assay service)

[14] = target: T14, panel of 370 protein kinases (Homo sapiens, UniProt P04629); settings: 2 h, kinase TRKA; read-out: % Enzyme Activity (relative to DMSO controls)
T14 construct: purchased Reaction Biology Corporation (assay service)

[15] = target: T15, panel of 370 protein kinases (Homo sapiens, UniProt P17612); settings: 2 h, kinase PKA; read-out: % Enzyme Activity (relative to DMSO controls)
T15 construct: purchased Reaction Biology Corporation (assay service)

[16] = target: T16, panel of 370 protein kinases (Homo sapiens, UniProt P48730); settings: 2 h, kinase CK1d; read-out: % Enzyme Activity (relative to DMSO controls)
T16 construct: purchased Reaction Biology Corporation (assay service)

[17] = target: T17, panel of 370 protein kinases (Homo sapiens, UniProt Q9Y5S2); settings: 2 h, kinase MRCKb/CDC42BPB; read-out: % Enzyme Activity (relative to DMSO controls)
T17 construct: purchased Reaction Biology Corporation (assay service)

[18] = target: T18, panel of 370 protein kinases (Homo sapiens, UniProt Q16566); settings: 2 h, kinase CAMK4; read-out: % Enzyme Activity (relative to DMSO controls)
T18 construct: purchased Reaction Biology Corporation (assay service)

[19] = tested on: panel of 370 protein kinases
[20] = target: T19, panel of 370 protein kinases (Homo sapiens, UniProt P49761); settings: 2 h, kinase CLK3; read-out: % Enzyme Activity (relative to DMSO controls)
T19 construct: purchased Reaction Biology Corporation (assay service)

[21] = target: T20, panel of 370 protein kinases (Homo sapiens, UniProt Q7L7X3); settings: 2 h, kinase TAOK1; read-out: % Enzyme Activity (relative to DMSO controls)
T20 construct: purchased Reaction Biology Corporation (assay service)
T20 sequence (Q7L7X3 whole entry): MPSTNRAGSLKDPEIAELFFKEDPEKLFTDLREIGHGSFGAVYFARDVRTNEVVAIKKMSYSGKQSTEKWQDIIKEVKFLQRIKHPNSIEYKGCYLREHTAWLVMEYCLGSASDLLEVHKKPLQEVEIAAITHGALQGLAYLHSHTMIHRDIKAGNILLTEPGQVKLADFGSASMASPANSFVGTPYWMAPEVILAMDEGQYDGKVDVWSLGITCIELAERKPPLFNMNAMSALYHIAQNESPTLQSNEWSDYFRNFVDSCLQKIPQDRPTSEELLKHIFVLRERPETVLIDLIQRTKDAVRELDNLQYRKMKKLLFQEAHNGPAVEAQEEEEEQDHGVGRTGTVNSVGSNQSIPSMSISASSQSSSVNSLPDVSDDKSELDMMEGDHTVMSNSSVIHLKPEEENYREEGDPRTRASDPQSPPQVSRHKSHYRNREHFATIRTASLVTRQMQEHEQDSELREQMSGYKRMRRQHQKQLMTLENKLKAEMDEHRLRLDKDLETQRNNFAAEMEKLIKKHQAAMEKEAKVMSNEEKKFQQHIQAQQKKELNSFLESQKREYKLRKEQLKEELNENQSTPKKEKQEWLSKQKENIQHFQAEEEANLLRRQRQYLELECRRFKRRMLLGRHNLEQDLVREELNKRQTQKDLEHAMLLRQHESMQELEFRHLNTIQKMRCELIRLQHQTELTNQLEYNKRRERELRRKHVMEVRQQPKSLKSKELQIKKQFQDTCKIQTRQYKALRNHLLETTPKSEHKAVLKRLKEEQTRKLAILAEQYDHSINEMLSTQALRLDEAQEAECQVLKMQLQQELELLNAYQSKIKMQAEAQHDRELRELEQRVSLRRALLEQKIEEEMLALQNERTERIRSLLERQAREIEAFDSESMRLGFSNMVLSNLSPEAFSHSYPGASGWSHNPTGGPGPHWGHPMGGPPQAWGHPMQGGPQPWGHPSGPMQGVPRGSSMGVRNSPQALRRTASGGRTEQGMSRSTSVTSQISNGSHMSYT

T1 sequence (P57059 whole entry): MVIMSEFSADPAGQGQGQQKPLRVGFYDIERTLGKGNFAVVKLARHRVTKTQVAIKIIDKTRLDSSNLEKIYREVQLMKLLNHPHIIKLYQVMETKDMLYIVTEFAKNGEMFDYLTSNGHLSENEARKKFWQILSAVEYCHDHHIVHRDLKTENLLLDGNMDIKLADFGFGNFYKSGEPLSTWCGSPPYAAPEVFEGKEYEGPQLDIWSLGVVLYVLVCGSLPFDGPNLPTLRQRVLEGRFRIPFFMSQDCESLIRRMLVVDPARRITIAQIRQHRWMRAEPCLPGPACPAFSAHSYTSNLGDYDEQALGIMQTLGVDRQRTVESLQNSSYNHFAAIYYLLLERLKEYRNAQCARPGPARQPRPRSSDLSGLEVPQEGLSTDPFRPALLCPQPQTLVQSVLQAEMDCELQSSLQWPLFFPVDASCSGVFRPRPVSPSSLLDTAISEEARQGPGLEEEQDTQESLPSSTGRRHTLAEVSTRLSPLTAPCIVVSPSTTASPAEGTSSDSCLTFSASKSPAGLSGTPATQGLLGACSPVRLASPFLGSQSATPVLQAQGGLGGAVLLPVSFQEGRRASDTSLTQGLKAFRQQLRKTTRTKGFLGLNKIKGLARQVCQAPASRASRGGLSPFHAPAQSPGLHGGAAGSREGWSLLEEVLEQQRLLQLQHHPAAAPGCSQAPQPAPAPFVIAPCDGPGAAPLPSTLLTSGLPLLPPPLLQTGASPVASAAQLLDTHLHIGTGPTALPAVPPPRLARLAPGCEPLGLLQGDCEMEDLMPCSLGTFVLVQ
T2 sequence (P49674 whole entry): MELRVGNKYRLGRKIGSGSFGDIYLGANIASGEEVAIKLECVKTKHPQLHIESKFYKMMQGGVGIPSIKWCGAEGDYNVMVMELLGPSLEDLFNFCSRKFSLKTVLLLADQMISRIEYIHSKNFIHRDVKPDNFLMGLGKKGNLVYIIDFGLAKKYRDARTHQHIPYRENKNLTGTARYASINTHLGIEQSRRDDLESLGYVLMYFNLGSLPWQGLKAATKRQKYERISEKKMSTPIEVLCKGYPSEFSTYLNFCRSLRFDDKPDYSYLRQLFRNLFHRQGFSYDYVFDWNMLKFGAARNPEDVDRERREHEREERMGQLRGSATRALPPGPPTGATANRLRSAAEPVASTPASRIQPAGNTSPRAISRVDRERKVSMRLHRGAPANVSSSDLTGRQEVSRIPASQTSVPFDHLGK
T6 sequence (O00444 whole entry): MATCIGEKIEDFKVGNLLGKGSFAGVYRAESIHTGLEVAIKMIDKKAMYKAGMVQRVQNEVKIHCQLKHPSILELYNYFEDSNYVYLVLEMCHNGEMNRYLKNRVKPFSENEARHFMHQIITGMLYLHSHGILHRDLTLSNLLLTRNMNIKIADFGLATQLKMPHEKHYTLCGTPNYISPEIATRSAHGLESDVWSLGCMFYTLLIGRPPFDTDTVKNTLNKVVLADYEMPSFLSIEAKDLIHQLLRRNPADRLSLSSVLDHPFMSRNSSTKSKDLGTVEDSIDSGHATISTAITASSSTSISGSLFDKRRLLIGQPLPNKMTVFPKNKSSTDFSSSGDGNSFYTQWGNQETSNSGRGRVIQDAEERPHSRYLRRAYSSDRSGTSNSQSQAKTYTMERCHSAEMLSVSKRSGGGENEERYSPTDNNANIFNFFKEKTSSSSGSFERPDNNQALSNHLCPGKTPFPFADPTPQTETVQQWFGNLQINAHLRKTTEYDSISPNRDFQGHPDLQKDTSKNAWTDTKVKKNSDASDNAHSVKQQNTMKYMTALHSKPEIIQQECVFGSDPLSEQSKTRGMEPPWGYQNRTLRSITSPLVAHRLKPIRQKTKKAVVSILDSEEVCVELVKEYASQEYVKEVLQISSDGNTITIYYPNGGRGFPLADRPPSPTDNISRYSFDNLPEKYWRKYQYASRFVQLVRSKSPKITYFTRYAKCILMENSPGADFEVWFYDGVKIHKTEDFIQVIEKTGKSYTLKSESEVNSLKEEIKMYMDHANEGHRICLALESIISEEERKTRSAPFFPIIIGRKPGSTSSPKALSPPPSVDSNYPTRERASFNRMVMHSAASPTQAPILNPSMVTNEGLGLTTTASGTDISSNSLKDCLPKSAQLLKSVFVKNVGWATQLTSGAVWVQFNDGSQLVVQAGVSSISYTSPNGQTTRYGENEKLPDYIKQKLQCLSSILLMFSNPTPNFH
T13 sequence (Q15759 whole entry): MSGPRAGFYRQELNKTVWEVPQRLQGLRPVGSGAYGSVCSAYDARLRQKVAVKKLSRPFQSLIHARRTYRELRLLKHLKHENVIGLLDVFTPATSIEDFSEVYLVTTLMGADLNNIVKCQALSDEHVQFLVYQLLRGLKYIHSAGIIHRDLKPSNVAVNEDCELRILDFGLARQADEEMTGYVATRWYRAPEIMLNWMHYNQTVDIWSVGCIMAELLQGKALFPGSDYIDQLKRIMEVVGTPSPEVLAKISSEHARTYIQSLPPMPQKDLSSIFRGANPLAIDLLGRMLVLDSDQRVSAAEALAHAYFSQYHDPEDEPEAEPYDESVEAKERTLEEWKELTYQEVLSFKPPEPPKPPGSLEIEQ
T8 sequence (P35626 whole entry): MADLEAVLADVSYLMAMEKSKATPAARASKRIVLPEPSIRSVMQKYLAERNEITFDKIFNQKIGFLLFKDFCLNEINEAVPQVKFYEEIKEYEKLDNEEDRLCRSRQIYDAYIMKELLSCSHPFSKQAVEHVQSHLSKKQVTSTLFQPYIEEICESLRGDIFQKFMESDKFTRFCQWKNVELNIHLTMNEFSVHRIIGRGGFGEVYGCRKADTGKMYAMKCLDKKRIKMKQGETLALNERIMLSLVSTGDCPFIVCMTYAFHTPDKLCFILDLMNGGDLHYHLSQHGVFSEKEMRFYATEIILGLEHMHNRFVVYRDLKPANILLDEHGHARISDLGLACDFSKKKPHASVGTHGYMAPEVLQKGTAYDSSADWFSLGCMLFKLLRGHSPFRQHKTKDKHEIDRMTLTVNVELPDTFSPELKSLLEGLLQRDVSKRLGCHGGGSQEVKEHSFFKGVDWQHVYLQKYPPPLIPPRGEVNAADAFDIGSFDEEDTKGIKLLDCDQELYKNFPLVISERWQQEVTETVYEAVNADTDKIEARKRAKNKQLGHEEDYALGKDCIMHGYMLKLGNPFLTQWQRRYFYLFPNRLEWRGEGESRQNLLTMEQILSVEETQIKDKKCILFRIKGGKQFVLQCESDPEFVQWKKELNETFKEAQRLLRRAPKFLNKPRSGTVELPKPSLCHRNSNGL
T10 sequence (P53778 whole entry): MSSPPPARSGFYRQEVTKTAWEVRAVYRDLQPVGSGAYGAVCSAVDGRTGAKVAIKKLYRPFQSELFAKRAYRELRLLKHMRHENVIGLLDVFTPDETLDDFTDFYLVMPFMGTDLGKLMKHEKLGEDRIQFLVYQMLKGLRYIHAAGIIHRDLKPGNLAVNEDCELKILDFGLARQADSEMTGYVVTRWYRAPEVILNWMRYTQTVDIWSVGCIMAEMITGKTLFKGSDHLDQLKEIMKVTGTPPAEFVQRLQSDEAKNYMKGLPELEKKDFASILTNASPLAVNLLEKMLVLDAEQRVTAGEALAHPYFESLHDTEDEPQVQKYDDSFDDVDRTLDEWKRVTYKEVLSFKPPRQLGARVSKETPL
T16 sequence (P48730 whole entry): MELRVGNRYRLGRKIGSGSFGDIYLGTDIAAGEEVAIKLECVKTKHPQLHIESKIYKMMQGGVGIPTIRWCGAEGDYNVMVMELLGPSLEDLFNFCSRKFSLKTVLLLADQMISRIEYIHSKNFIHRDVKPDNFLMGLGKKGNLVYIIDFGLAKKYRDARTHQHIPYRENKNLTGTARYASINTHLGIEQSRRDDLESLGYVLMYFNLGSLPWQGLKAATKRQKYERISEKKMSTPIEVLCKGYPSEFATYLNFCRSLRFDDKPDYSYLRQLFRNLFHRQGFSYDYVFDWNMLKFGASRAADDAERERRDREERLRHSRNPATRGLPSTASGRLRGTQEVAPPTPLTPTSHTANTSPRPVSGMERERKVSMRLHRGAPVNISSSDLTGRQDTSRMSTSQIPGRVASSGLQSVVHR

**Q.** Which results are given for `CCN1CCN(C(=O)c2ccc(Nc3ncc(F)c(-c4ccc5nc(N(C)C)sc5c4)n3)nc2)CC1` [YK-2-69]?
**A.** % Enzyme Activity (relative to DMSO controls) [1]: 99.48% and 98.60%; remaining activity at 1 µM [2]: 111%; remaining activity at 1 µM [3]: 70.9%; remaining activity at 1 µM [4]: 97%; remaining activity at 1 µM [5]: 95.2%; remaining activity at 1 µM [6]: 72.6%; remaining activity at 1 µM [7]: 44.6%; remaining activity at 1 µM [8]: 108%; remaining activity at 1 µM [9]: 80.1%; remaining activity at 1 µM [10]: 98.1%; remaining activity at 1 µM [11]: 115%; remaining activity at 1 µM [12]: 96.3%; remaining activity at 1 µM [13]: 94.9%; remaining activity at 1 µM [14]: 104%; remaining activity at 1 µM [15]: 98.7%; remaining activity at 1 µM [16]: 104%; remaining activity at 1 µM [17]: 105%; remaining activity at 1 µM [18]: 101%; kinase selectivity against 370 kinases ([19]; 1 µM): selectivity over 360+ kinases; % Enzyme Activity (relative to DMSO controls) ([19]; kinase LYN B): 102.77% and 100.49%; % Enzyme Activity (relative to DMSO controls) ([19]; kinase PKCb2): 92.22% and 91.87%; % Enzyme Activity (relative to DMSO controls) ([19]; kinase PKG1b): 114.44% and 107.54%; remaining activity at 1 µM [20]: 80.5%; remaining activity at 1 µM [21]: 108%
